According to ChEMBL document CHEMBL6127049, “Discovery of the selective and nanomolar inhibitor of DPP-4 more potent than sitagliptin by structure-guided rational design” (Eur J Med Chem, 2024):
Activity calls are given as the source filed them. No cut-off for these calls is given here.

Experiments:
[1] = system: Rattus norvegicus; assay: Anti-diabetic activity in normal Wistar rat model assessed as blood glucose level at 10 mg/kg, po followed by treated administered 3 mg/kg orally measured after 60 mins by Oral glucose tolerance test (reference value: 153.74 + /- 3.94 mg/dL); format: functional; settings: 1 h
[2] = Acute toxicity in Balb/C mouse assessed as morphological changes in tremors at 1250 to 2000 mg/kg, po; format: organism-based; settings: in vivo, dose 1250-2000 mg/kg
[3] = system: Rattus norvegicus; assay: Anti-diabetic activity in normal Wistar rat model assessed as blood glucose level at 20 mg/kg, po followed by treated administered 3 mg/kg orally measured after 120 mins by Oral glucose tolerance test (reference value: 126.5 + /- 3.90 mg/dL); format: functional; settings: 2 h
[4] = system: Rattus norvegicus; assay: Anti-diabetic activity in normal Wistar rat model assessed as blood glucose level at 10 mg/kg, po followed by treated administered 3 mg/kg orally measured immediately after administration by Oral glucose tolerance test (reference value: 105.12 mg/dL); format: functional
[5] = system: Rattus norvegicus; assay: Anti-diabetic activity in STZ-induced type 2 diabetes male Wistar albino rat model assessed as fasting blood glucose level at 20 mg/kg, po measured on day 28; format: functional; settings: time 28 day
[6] = system: Rattus norvegicus; assay: Reduction of serum glutamate pyruvate transaminase (SGPT) level in STZ-induced type 2 diabetes male Wistar albino rat model at 20 mg/kg, po measured after 4 weeks by hepatic function test; format: functional, organism-based
[7] = system: Rattus norvegicus; assay: Reduction of serum glutamate oxaloacetate transaminase (SGOT) level in STZ-induced type 2 diabetes male Wistar albino rat model at 10 mg/kg, po measured after 4 weeks by hepatic function test; format: functional, organism-based
[8] = system: Rattus norvegicus; assay: Reduction of alkaline phosphatase (ALP) level in STZ-induced type 2 diabetes male Wistar albino rat model at 20 mg/kg, po measured after 4 weeks by hepatic function test; format: functional, organism-based
[9] = system: Rattus norvegicus; assay: Antihyperlipidemic effect in STZ-induced type 2 diabetes male Wistar albino rat model assessed as LDL level at 20 mg/kg, po measured after 4 weeks (reference value: 184.65 +/- 4.57 mg/dL); format: functional

CC1=C([N+](=O)[O-])C(c2ccc(F)c(F)c2)N=C(N)N1C(=O)CN1Cc2cn(S(C)(=O)=O)nc2C1 (centres undefined)
Activity [1]: 118.35 mg/dL
Activity [2]: Non-Toxic
Activity [3]: 111.56 mg/dL
Activity [4]: 103.57 mg/dL
Activity [5]: 117 mg/dL
Activity [6]: Active
Activity [7]: Active
Activity [8]: Active
Activity [9]: 114.54 mg/dL
